# In ChEMBL document CHEMBL4507301 (2021):
# Tests used:
# [1] = target: T1, Alpha-2A adrenergic receptor (Homo sapiens) (UniProt P08913); experiment: alpha2A Eurofins-Panlabs ligand profiling; conditions: Compound concentration 10.0 uM
# T1 sequence (whole entry): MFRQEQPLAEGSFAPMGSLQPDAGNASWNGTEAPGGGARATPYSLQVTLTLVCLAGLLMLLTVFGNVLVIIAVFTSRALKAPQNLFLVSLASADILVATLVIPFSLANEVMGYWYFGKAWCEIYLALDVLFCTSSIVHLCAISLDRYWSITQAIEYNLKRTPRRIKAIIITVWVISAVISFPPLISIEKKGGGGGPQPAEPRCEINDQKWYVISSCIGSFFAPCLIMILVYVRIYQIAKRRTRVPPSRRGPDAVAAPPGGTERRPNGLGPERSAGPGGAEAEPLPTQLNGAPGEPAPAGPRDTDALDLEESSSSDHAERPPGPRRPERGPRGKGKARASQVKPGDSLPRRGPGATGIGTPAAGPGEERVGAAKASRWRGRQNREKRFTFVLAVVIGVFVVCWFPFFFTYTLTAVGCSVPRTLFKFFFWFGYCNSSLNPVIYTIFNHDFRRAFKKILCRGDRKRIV
# [2] = target: Alpha-2B adrenergic receptor (Homo sapiens, UniProt P18089); experiment: alpha2B Eurofins-Panlabs ligand profiling
# Sequence of Alpha-2B adrenergic receptor (P18089 whole entry): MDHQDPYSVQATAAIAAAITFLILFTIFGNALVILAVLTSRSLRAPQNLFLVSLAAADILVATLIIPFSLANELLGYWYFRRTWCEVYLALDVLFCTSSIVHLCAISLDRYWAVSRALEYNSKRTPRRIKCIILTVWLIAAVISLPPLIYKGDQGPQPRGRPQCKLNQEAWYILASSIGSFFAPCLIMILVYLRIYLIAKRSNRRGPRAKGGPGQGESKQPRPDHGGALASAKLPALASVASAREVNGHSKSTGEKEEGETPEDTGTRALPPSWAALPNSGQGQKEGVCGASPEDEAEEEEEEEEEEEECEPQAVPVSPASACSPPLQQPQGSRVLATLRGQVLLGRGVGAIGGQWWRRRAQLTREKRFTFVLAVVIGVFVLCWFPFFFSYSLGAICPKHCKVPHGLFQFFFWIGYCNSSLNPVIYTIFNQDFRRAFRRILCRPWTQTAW
# [3] = target: Beta-3 adrenergic receptor (Homo sapiens) (UniProt P13945); conditions: Compound concentration 10.0 uM
# Sequence of Beta-3 adrenergic receptor (Homo sapiens) (P13945 whole entry, looked up): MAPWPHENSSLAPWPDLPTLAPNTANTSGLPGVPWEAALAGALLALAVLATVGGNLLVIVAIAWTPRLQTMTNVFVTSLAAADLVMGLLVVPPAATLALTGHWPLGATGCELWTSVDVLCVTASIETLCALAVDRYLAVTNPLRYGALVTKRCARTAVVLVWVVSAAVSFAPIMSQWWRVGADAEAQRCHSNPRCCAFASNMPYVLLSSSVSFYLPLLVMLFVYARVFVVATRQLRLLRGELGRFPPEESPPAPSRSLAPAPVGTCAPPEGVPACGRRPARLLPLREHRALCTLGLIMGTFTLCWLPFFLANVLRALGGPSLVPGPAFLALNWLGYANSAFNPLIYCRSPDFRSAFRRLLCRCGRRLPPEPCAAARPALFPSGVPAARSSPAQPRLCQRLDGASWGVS
# [4] = target: Alpha-1A adrenergic receptor (Homo sapiens) (UniProt P35348); conditions: Compound concentration 10.0 uM
# Sequence of Alpha-1A adrenergic receptor (Homo sapiens) (P35348 whole entry): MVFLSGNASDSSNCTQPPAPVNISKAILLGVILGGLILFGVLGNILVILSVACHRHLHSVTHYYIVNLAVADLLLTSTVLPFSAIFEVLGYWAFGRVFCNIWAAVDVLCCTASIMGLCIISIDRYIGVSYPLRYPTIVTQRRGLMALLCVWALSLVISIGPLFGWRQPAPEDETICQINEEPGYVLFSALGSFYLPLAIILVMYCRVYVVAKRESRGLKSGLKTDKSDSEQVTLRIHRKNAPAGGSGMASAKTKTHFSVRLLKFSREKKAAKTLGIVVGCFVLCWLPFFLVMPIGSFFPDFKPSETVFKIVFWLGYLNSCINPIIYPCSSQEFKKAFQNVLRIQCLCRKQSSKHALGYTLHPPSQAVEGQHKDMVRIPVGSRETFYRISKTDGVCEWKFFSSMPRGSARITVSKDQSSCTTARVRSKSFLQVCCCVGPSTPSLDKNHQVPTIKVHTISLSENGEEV
# [5] = target: Alpha-1B adrenergic receptor (Homo sapiens, UniProt P35368); experiment: Binding assay (ADRA1B)
# Sequence of Alpha-1B adrenergic receptor (P35368 whole entry): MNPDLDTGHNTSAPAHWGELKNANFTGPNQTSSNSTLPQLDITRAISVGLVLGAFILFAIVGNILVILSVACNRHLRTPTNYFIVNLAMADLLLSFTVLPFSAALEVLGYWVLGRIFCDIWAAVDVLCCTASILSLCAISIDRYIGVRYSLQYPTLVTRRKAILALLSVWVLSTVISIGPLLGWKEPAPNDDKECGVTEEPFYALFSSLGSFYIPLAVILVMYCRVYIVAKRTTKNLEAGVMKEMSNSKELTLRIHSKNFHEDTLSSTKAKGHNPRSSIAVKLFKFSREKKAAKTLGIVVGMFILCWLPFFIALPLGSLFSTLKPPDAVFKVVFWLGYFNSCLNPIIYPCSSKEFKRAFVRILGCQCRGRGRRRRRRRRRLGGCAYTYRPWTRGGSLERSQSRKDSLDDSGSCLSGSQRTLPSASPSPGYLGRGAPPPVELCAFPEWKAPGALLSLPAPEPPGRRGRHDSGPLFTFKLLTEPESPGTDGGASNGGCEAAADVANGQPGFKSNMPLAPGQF
Structure (SMILES),inhibition [1] [%],IC50 [2] [nM],inhibition [3] [%],inhibition [4] [%],Ki [5]
C[C@H](c1cccc(C#N)c1)n1cc(Cl)cc(C(N)=O)c1=N [(R)-9s],5,1400,–,–,–
C[C@@H](c1cccc(C#N)c1)n1cc(Cl)cc(C(N)=O)c1=N [(S)-9s],–,–,-4.49,54.8,> 1200 nM (not active)
